Laboratory results as given in patent US20190192524A1, “Modulators of Caspase-6” (The University of British Columbia, priority 2014, published 2019).

Legend:
primary cortical neurons = assay: Neuronal viability during excitotoxic (NMDA) stress, intracellular ATP; type: cell-based, FVB/N mice; settings: 10 uM compound; NMDA 25 uM or 50 uM, 20 h
Method: Cortical neuronal cultures from FVB mice were prepared as described (Metzler et al, J Neurosci (2007) 27(9):2298). […] The measurement of intracellular ATP was used as an assessment of neuronal viability as described previously (Uribe et al, HMG 2012. 21(9):1954-67) using the Cell-titer glo kit from Promega according to manufacturer's instructions.
It has been previously been shown in HD animal models that neuronal cells expressing mHTT have an increased vulnerability to excitotoxic stress (Graham et al. 2005. Neurobiol. Dis. 21:444-455) and that this may be mediated by caspase 6 (Graham et al. 2006. Cell 6(13):1179-1191 and Uribe et al HMG 2012; 21(9):1954-67). The link between NMDA-induced toxicity and other neurodegenerative diseases has been reviewed by Lipton et al., Nat Rev Drug Discovery 2006. 5:160-170. Therefore, the effect of the presence of the PG-3d compound on the ability of neuronal cells to survive during excitotoxic stress via its ability to inhibit the caspase-6 enzyme was investigated.

[1] = target: T1, full-length human caspase-6 (Homo sapiens, UniProt P55212); assay: Western blot of Htt fragments in COS-7 cells co-transfected with Htt 1-1212AA and full-length caspase-6; type: cell-based; settings: 10 uM compound, 24 hr, vs DMSO
T1 construct: DDK-tag (C); expressed in transfected cells; host or cells: COS-7
T1 sequence (P55212 with tags, fused parts or gaps): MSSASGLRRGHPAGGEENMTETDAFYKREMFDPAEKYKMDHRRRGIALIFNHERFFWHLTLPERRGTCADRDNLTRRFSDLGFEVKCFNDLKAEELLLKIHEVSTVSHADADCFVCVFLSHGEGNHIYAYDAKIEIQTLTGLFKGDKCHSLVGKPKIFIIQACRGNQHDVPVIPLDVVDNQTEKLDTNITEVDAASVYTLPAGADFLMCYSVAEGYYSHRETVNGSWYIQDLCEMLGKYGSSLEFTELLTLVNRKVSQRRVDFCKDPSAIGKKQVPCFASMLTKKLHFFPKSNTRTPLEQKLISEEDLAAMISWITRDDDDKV
Method: (§1) COS-7 cells were co-transfected with the 1212 amino acid HTT fragment (SEQ ID NO: 3) and the full length human caspase-6 enzyme (SEQ ID NO:4). The co-transfected cells were exposed to either 10 uM of the PG3d compound, 3 uM of the Q-VD-Oph pan-caspase inhibitor or were treated with DMSO as a control. An aliquot of the cell lysates were subjected to Western blotting to detect HTT fragments with the Htt antibody 2166 (Millipore) and the presence of caspase-6 was detected using the HD91 antibody (Ehrnhoefer et al, HMG, 2014. 23(3):717-29). The remaining cell lysates (500 ug protein) were immunoprecipitated with 5 ug of Caspase-6 antibody for 16 hrs at 4 C. The immunoprecipitated proteins were then applied to acrylamide gels and immunoblotted to detect either the HTT fragments or the presence of the active caspase 6 enzyme using the antibodies described above.
Cos-7 cells were co-transfected with Htt 1-1212AA (SEQ ID NO:3) and full-length human caspase-6 (SEQ ID NO:6), and exposed to either the pan-caspase inhibitor Q-VD-OPh, the PG3d compound or DMSO as a negative control. As shown in the upper panel of FIG. 9A, control cells that received DMSO alone (lanes labelled n.t.) show the presence of the Htt 1212AA protein and the Htt proteolytic cleavage fragments including the 586, 552 and 513 amino acid fragments. […]

[2] = target: T2, interaction between 1212AA Htt and caspase-6 (Homo sapiens, UniProt P55212); assay: Co-immunoprecipitation of Htt with caspase-6 antibody from COS-7 lysates; type: cell-based; settings: 10 uM compound, vs DMSO
T2 construct: DDK-tag (C); expressed in transfected cells; host or cells: COS-7
T2 sequence (P55212 with tags, fused parts or gaps): T1 sequence (P55212 with tags, fused parts or gaps)
Method: as §1
As expected, the DMSO control lysates reveal a variety of Htt fragments within the immunocomplexes, including 513AA fragment generated by caspase-3 cleavage, the full-length 1212AA Htt and the 586AA fragment generated by caspase-6 cleavage. When the cells are treated with the pan-caspase inhibitor Q-VD-OPh, the amount of Htt cleavage fragments interacting with caspase-6 is reduced and it is evident that caspase-6 is primarily interacting with the 1212 AA Htt.

## O=c1oc(C#Cc2ccccc2)nc(O)c1Cc1ccccc1 [PG-3d, 5-Benzyl-4-hydroxy-2-(phenylethynyl)-6H-1,3-oxazin-6-one]
Primary cortical neurons
  cell viability (intracellular ATP): significant improvement
[1]
  level of the 586AA Htt fragment: reduction
[2]
  interaction between 1212AA Htt and caspase-6 (co-immunoprecipitated Htt): significantly reduces
